Paper PMC6406907, “A H2AX–CARP-1 Interaction Regulates Apoptosis Signaling Following DNA Damage” (Cancers, 2019)
No end group written: not given here. HA = not defined here

System: γH2AX
Test: Confocal immunofluorescence of γH2AX / peptide, MDA-MB-468
Format: cell-based, human
Protocol: Cells were plated onto chamber slides one day before treatment. Following treatment of cells with respective compounds, the adherent cells were fixed with 5% formaldehyde for 10 min and then washed with phosphate buffered saline (PBS). Samples were blocked (0.5% NP-40, 5% milk powder, 1% fetal bovine serum) for 30 min. After a single wash with PBS, cells were incubated with primary antibodies for 45 to 60 min. Coverslips were washed with PBS and then incubated with secondary antibodies for another 45 to 60 min. They were then washed with PBS and mounted with 0.1 μg/mL 4′,6′-diamidino-2-phenylindole (DAPI) containing mounting solution. For confocal imaging, cells were first fixed with PFA, then stained for CARP-1 by myc-tag antibodies (green), γH2AX antibodies (red), and DAPI (blue) for nuclear staining. Immunofluorescent or confocal images were taken using a Zeiss LSM 510 Meta NLO (63×).
Our next objective was to analyze the biological significance of the CARP-1–H2AX interaction in cells. […] Next, we measured activation of caspases as an apoptosis readout in cells expressing myc-His-tagged wild-type CARP-1 or CARP-1 (Δ600–650) proteins that were either untreated or treated with Adriamycin or CFM compounds as detailed in Section 2. We utilized a lower, 4–5 μM dose of Adriamycin or CFM compounds because a 10 μM Adriamycin dose caused interference in signal output/readout in this particular assay, likely due to background fluorescence that is emitted by higher dose of Adriamycin. Although Adriamycin has a maximum excitation and emission wavelength of 470 and 560 nm, respectively, we found significant fluorescence emission in cells treated with 10 μM Adriamycin at a 380-nm excitation wavelength. Moreover, since caspase activation precedes apoptotic cell death, we utilized a lower dose of Adriamycin to permit a robust measurement of optimal caspase activation in cells undergoing moderate apoptosis with lower/minimal interference by Adriamycin-induced fluorescence signals. […]

Substance	nuclear presence of γH2AX (MDA-MB-468 expressing EGFP-H2AX (1–35) vs EGFP, Adriamycin-treated)	co-localization with γH2AX (6 μg/mL peptide, 72 h, confocal, insets top and middle rows of Figure 8C)	presence of γH2AX in Adriamycin-treated cells (MDA-MB-468 pre-incubated with 6 μg/mL peptide, 72 h, then Adriamycin, vs no peptide or scrambled peptide)
EGFP-H2AX (1–35): EGFP-tagged fusion protein stably expressed in MDA-MB-468 and HeLa sublines (MSGRGKTGGKARAKAKSRSSRAGLQFPVGRVHRLL; also: EGFP fusion, end not given here; UniProt P16104 1-35, looked up, fragment)	increased nuclear presence of γH2AX		
His-TAT-HA-CARP-1 (636–650): His-TAT-HA-tagged CARP-1 (636–650) peptide, >95% purity, commercially synthesized ({His-TAT-HA}-PKTMKVNDLRKELES; reading uncertain; UniProt Q8IX12 636-650, looked up, fragment)		co-localization	increased presence of γH2AX
